Results published in the NIST ThermoML archive (doi:10.1016/j.jct.2016.03.029).

Experiments:
[1] = 100 kPa, Liquid; for speed of sound: Frequency=3 MHz, Sing-around technique in a fixed-path interferometer; for mass density: Vibrating tube method
[2] = refractive index (Na D-line) (dimensionless); settings: 100 kPa, Liquid, Standard Abbe refractometry
[3] = xn = mol fraction of the nth substance listed; settings: 100 kPa, Liquid, x2 = 0; for speed of sound: Frequency=3 MHz, Sing-around technique in a fixed-path interferometer; for mass density: Vibrating tube method
[4] = refractive index (Na D-line) (dimensionless); xn = mol fraction of the nth substance listed; settings: 100 kPa, Liquid, Standard Abbe refractometry, x2 = 0

CCCC[n+]1ccn(C)c1.O=S(=O)([N-]S(=O)(=O)C(F)(F)F)C(F)(F)F
Settings	mass density, [1] [kg/m3]	refractive index, [2]	speed of sound, [1] [m/s]
298.15 K	1433.72	1.42671	1227.9
303.15 K	1428.92	1.42522	1216.8
308.15 K	1424.13	1.42373	1205.8
313.15 K	1419.36	1.42225	1195
318.15 K	1414.61	1.42076	1184.2
323.15 K	1409.88	1.41923	1173.6

CN1CCCC1=O [N-methylpyrrolidone]
Settings	mass density, [1] [kg/m3]	refractive index, [2]	speed of sound, [1] [m/s]
298.15 K	1027.1	1.46838	1543.8
303.15 K	1022.64	1.46626	1524.3
308.15 K	1018.18	1.46412	1505
313.15 K	1013.72	1.46199	1485.7
318.15 K	1009.25	1.45983	1466.7
323.15 K	1004.79	1.45771	1447.8

CN1CCCC1=O [N-methylpyrrolidone] + CCCC[n+]1ccn(C)c1.O=S(=O)([N-]S(=O)(=O)C(F)(F)F)C(F)(F)F
Settings	mass density, [3] [kg/m3]	refractive index, [4]	speed of sound, [3] [m/s]
298.15 K	1027.1	1.46838	1543.8
303.15 K	1022.64	1.46626	1524.3
308.15 K	1018.18	1.46412	1505
313.15 K	1013.72	1.46199	1485.7
318.15 K	1009.25	1.45983	1466.7
323.15 K	1004.79	1.45771	1447.8
